In series [1] the test system is Vero. The series can be described thus: Cytotoxicity assay. The format is cell-based, African green monkey. The following applies: trypan blue dye exclusion after 7 days, ± one SD.
The subject of series [2] is HSV-1. The series can be described thus: Plaque reduction assay. It counts as cell-based, Herpes simplex virus 1, strain GHSV-UL46. The following applies: HSV-1 in Vero cells; ± one SD.
The test system of series [3] is BS-C-1. Kind of series: Cytotoxicity assay. The format is cell-based, African green monkey. To be noted: trypan blue dye exclusion after 7 days, ± one SD.
Another series has as its system Reovirus ST3. Kind of series: Plaque reduction assay. It counts as cell-based, reovirus serotype 3 (ST3) strain Dearing. The following applies: Reovirus ST3 in L929 cells, ± one SD. Background: In a plaque reduction assay, fewer plaques than in the control indicate reduced infectivity or spread.
In a further series the test system is Vaccinia WR. The format is cell-based, Vaccinia virus, strain WR.
In series [4] the test system is L929. Kind of series: Cytotoxicity assay. It counts as cell-based, mouse. The following applies: trypan blue dye exclusion after 7 days, ± one SD.
Series [5] has as its system 143. Kind of series: Cytotoxicity assay. The format is cell-based, human. To be noted: trypan blue dye exclusion after 7 days, ± one SD.
For the next series, the system named is VZV. The format is cell-based, Varicella Zoster virus, strain Ellen. To be noted: VZV in BS-C-1 cells; ± one SD.
The subject of series [6] is Vero. The series can be described thus: Chemotherapeutic activity. To be noted: after 7 days, ± one SD.
Series [7] deals with BS-C-1. The series can be described thus: Chemotherapeutic activity. The following applies: after 7 days, ± one SD.
Series [8] relates to L929, 143, Vero, BS-C-1 cell lines. Kind of series: Cell inhibition as a function of drug concentration. The following applies: Fig. 1; cell line not specified.
The subject of series [9] is L929. The series can be described thus: Chemotherapeutic activity. The following applies: after 7 days, ± one SD.
Series [10] deals with 143. The series can be described thus: Chemotherapeutic activity. The following applies: after 7 days, ± one SD.
For series [11], the system named is reovirus, vaccinia, HSV-1, VZV. It counts as cell-based.
The next series has as its system ssRNA viruses. The following applies: in words; cited from earlier work.
In series [12] the test system is HSV-1. The following applies: cited from earlier work.
For a further series, the system named is vaccinia. To be noted: cited from earlier work.

Molecules are shown by their SMILES. Structures can show the parent of a compound that is named as a salt.

Regarding `Nc1nc2c(ncn2COCCO)c(=O)[nH]1` [Acyclovir], the “MCC, minimum cytotoxicity concentration that causes a reduction in cell viability >10%” value came out at 400 ± 42.0 µg/mL with Vero [1], 440 ± 39.0 µg/mL in the series with BS-C-1 [3], 500 ± 42.0 µg/mL in the series on L929 [4] and 425 ± 32.0 µg/mL in the series with 143 [5]. In addition, the “MIC, minimum inhibitory concentration required to reduce virus plaque number by 50%” value in the series on HSV-1 [2] was “about 0.08 μg/mL”; against Reovirus ST3, over 250 µg/mL; against Reovirus ST3 (listed as acyclovir), over 250 µg/mL; in the series with Vaccinia WR, over 200 µg/mL.

In the case of `N.N.[Cl][Pt][Cl]` [Cisplatin], the “MIC, minimum inhibitory concentration required to reduce virus plaque number by 50%” value against HSV-1 [2], against Reovirus ST3, with VZV and in the series with Vaccinia WR was over 25 µg/mL throughout. Besides, the “GI50 (50% reduction in cell growth)” value in the series with Vero [6] was found to be 50 ± 4.0 µg/mL; with BS-C-1 [7], 50 ± 3.0 µg/mL; in the series on L929 [9], 75 ± 6.0 µg/mL; in the series with 143 [10], 50 ± 4.0 µg/mL. Moreover, in series [8], the GI50 entry is reported as “about 50 μg/mL”.

With `[Cl][Pt-2]([Cl])([Cl])[Cl].[K+].[K+]` [Compound K2PtCl4, potassium tetrachloroplatinate(II)], the “MCC, minimum cytotoxicity concentration that causes a reduction in cell viability >10%” value in the series on Vero [1] turned out to be 100 ± 9.0 µg/mL; with BS-C-1 [3] it was 75 ± 6.0 µg/mL; with L929 [4] it was 100 ± 9.0 µg/mL; in the series on 143 [5], 75 ± 6.0 µg/mL. The “inhibition of the tested viruses” value in [11] was “little inhibition”. Further, the “MIC, minimum inhibitory concentration required to reduce virus plaque number by 50%” value against HSV-1 [2] is over 100 µg/mL; with Reovirus ST3, over 100 µg/mL; against VZV it was over 75 µg/mL; with Vaccinia WR, over 75 µg/mL. In addition, the “GI50 (50% reduction in cell growth)” value in the series with Vero [6] was found to be 200 ± 16.0 µg/mL; in the series with BS-C-1 [7] it was 175 ± 20.0 µg/mL; with L929 [9], 200 ± 20.0 µg/mL; with 143 [10] it was 175 ± 12.0 µg/mL.

For `CCN(CC)CCOc1ccc2c(c1)C(=O)c1cc(OCCN(CC)CC)ccc1-2` [Tilorone hydrochloride, 2,7-bis[2-(9-diethylamino)ethoxy]-9H-fluorene-9-one], the “antiviral activity against ssRNA viruses” value in the series with ssRNA viruses was “no antiviral activity”. The “concentration shown to inhibit HSV-1” value in the series on HSV-1 [12] was 10 µg/mL. Moreover, in the series with vaccinia, the “concentration shown to inhibit vaccinia” value is 10 µg/mL.

Source of the values: article PMC7088078 (Journal of Inorganic and Organometallic Polymers and …, 2008).
